Source: patent publication US11123337B2, “4-methylsulfonyl-substituted piperidine urea compounds” (MYOKARDIA, INC., priority 2015, dated 2021)

biological target: bovine cardiac myosin (Bos taurus, UniProt Q9BE39); test: Myosin activation assay (PK/LDH-coupled ATPase, bovine cardiac myofibrils); assay type: biochemical; conditions: AC20 = concentration at which total response is increased by twenty percent
Outline: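 Values are the concentrations raising the ATPase rate by 20% or 50% over DMSO, from 10-point dose responses fitted with four parameters. Rate is NADH loss at 340 nm via PK/LDH coupling, read 15 min at room temperature, in pH 6.8 PIPES with 50 μM ATP. Bovine cardiac myofibrils were held at pCa ~6 or pCa 10.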

Chain of bovine cardiac myosin (Q9BE39 whole entry): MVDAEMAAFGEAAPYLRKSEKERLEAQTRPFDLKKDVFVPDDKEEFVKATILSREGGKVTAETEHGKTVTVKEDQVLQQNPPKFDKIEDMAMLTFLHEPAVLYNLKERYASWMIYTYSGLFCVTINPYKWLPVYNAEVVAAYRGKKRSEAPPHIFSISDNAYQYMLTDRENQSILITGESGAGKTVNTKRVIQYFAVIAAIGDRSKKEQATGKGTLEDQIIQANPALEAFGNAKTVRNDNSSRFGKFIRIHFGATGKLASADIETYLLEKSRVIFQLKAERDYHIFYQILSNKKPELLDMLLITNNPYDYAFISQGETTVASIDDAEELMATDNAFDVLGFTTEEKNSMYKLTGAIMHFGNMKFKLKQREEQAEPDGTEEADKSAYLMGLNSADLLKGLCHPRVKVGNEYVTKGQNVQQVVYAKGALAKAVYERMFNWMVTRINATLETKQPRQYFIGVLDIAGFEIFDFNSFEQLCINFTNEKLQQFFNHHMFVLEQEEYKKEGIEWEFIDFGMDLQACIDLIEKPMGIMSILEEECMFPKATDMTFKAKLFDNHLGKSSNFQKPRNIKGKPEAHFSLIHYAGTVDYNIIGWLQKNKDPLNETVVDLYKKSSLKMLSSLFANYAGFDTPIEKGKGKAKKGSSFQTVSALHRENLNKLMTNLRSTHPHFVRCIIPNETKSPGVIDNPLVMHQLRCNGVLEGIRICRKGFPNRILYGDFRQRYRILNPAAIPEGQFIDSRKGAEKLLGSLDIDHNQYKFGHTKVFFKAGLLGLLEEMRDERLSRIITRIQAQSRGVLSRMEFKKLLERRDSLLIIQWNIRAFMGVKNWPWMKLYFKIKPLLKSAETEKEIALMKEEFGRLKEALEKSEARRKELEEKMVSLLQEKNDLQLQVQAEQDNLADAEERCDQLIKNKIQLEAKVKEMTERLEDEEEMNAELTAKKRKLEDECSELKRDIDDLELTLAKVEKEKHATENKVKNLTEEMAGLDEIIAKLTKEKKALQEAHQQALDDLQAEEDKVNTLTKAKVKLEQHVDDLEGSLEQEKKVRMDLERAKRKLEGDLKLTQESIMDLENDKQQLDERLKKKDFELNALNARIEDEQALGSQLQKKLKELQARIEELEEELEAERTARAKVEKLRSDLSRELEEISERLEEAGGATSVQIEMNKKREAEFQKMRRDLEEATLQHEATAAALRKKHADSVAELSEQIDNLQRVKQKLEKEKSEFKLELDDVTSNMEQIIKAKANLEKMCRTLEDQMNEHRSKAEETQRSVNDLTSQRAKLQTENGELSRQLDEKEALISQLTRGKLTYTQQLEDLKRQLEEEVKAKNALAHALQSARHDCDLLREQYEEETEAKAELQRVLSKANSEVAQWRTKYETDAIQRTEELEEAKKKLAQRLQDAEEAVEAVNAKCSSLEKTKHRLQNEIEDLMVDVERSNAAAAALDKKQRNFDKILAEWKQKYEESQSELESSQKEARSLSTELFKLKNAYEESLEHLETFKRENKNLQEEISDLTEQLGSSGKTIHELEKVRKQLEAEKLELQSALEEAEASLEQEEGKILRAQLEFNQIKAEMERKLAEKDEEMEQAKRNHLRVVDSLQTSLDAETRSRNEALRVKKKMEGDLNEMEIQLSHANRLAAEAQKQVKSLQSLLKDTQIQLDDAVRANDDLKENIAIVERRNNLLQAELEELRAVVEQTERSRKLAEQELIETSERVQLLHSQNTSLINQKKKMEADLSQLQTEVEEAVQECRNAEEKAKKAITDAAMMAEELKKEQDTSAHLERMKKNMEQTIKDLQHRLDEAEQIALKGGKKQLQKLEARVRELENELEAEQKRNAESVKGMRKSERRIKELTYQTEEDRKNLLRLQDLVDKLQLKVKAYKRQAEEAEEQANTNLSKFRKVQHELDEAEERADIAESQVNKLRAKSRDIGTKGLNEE
Chain of bovine cardiac myosin (P85100 whole entry partner): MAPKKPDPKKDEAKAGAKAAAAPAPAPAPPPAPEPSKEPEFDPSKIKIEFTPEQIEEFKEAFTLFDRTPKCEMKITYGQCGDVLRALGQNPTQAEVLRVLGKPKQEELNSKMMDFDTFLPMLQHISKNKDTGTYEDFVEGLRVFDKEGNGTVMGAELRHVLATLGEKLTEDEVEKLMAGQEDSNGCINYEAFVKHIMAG
Chain of bovine cardiac myosin (Q3SZE5 whole entry partner): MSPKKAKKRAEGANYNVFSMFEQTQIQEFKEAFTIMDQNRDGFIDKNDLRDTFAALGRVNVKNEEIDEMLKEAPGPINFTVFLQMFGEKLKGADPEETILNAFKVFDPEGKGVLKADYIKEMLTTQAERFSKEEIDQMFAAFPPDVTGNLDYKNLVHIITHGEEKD

**Q.** `O=C(Nc1ccncc1)N1CCC(C2(S(=O)(=O)c3cccc(F)c3)CCC2)CC1` [Compound 42, 4-(1-((3-fluorophenyl)sulfonyl)cyclobutyl)-N-(pyridin-4-yl)piperidine-1-carboxamide] was tested. Which “Myosin Activation (AC20)” value did it give?
**A.** +++ (+++ represents myosin activation value AC20 < 2 μM)

**Q.** With `Cc1ccccc1S(=O)(=O)C(C)(F)C1CCN(C(=O)Nc2ccnnc2)CC1` (stereo not drawn) [Compound 53, 4-(1-fluoro-1-(o-tolylsulfonyl)ethyl)-N-(pyridazin-4-yl)piperidine-1-carboxamide] as the compound, how does the “Myosin Activation (AC20)” value read?
**A.** +++ (+++ represents myosin activation value AC20 < 2 μM)

**Q.** Which “Myosin Activation (AC20)” value does the source give for `CC(F)(C1CCN(C(=O)Nc2ccnc(F)c2)CC1)S(=O)(=O)c1ccc(C(F)(F)F)cc1` (stereo not drawn) [Compound 243, 4-(1-fluoro-1-((4-(trifluoromethyl)phenyl)sulfonyl)ethyl)-N-(2-fluoropyridin-4-yl)piperidine-1-carboxamide] here?
**A.** ++ (++ represents myosin activation value AC20 from 2 μM-5 μM)

**Q.** `CN(C(=O)N1CCC(C(C)(C)S(=O)(=O)c2cccc(F)c2)CC1)c1ccncc1` [Compound 219, 4-(2-((3-fluorophenyl)sulfonyl)propan-2-yl)-N-methyl-N-(pyridin-4-yl)piperidine-1-carboxamide] was tested. Which “Myosin Activation (AC20)” value did it give?
**A.** + (+ represents myosin activation value AC20 > 5 μM)

**Q.** With `CC(C)(C1CCN(C(=O)Nc2cnoc2)CC1)S(=O)(=O)c1cccc(F)c1` [Compound 158, 4-(2-((3-fluorophenyl)sulfonyl)propan-2-yl)-N-(isoxazol-4-yl)piperidine-1-carboxamide] as the compound, how does the “Myosin Activation (AC20)” value read?
**A.** +++ (+++ represents myosin activation value AC20 < 2 μM)

**Q.** For `CC(C)(C1CCN(C(=O)Nc2ccnnc2)CC1)S(=O)(=O)c1cc(F)cc(F)c1` [Compound 169, 4-(2-((3,5-difluorophenyl)sulfonyl)propan-2-yl)-N-(pyridazin-4-yl)piperidine-1-carboxamide], which “Myosin Activation (AC20)” value is on record?
**A.** +++ (+++ represents myosin activation value AC20 < 2 μM)

**Q.** For `CC(F)(C1CCN(C(=O)Nc2cncc(F)c2)CC1)S(=O)(=O)c1cccc(F)c1` (stereo not drawn) [Compound 223, 4-(1-fluoro-1-((3-fluorophenyl)sulfonyl)ethyl)-N-(5-fluoropyridin-3-yl)piperidine-1-carboxamide], which “Myosin Activation (AC20)” value is on record?
**A.** + (+ represents myosin activation value AC20 > 5 μM)

**Q.** With `O=C(Nc1cncs1)N1CCC(CS(=O)(=O)c2cccc(F)c2)CC1` [Compound 36, 4-(((3-fluorophenyl)sulfonyl)methyl)-N-(thiazol-5-yl)piperidine-1-carboxamide] as the compound, how does the “Myosin Activation (AC20)” value read?
**A.** + (+ represents myosin activation value AC20 > 5 μM)

**Q.** Which “Myosin Activation (AC20)” value does the source give for `Cc1ccccc1S(=O)(=O)C1(C2CCN(C(=O)Nc3ccncc3)CC2)CC1` [Compound 202, N-(pyridin-4-yl)-4-(1-(o-tolylsulfonyl)cyclopropyl)piperidine-1-carboxamide] here?
**A.** +++ (+++ represents myosin activation value AC20 < 2 μM)

**Q.** With `Cn1cc(S(=O)(=O)C(C)(F)C2CCN(C(=O)Nc3ccnnc3)CC2)c(C(F)(F)F)n1` (stereo not drawn) [Compound 281, 4-(1-fluoro-1-((1-methyl-3-(trifluoromethyl)-1H-pyrazol-4-yl)sulfonyl)ethyl)-N-(pyridazin-4-yl)piperidine-1-carboxamide] as the compound, how does the “Myosin Activation (AC20)” value read?
**A.** ++ (++ represents myosin activation value AC20 from 2 μM-5 μM)

**Q.** For `CC(F)(C1CCN(C(=O)Nc2ccnnc2)CC1)S(=O)(=O)c1ccc(C(F)(F)F)cc1` (stereo not drawn) [Compound 266, 4-(1-fluoro-1-((4-(trifluoromethyl)phenyl)sulfonyl)ethyl)-N-(pyridazin-4-yl)piperidine-1-carboxamide], which “Myosin Activation (AC20)” value is on record?
**A.** ++ (++ represents myosin activation value AC20 from 2 μM-5 μM)

**Q.** Which “Myosin Activation (AC20)” value does the source give for `O=C(Nc1ccnnc1)N1CCC(C(F)(F)S(=O)(=O)c2cccn3ccnc23)CC1` [Compound 22, 4-(Difluoro(imidazo[1,2-a]pyridin-8-ylsulfonyl)methyl)-N-(pyridazin-4-yl)piperidine-1-carboxamide] here?
**A.** + (+ represents myosin activation value AC20 > 5 μM)
